From paper PMC12040169 (PLOS Biology, 2025)

Test: in vitro
Conditions: human, hela cells, % viability
`Cc1ccc(S(=O)(=O)NC(C)(C)CSc2ccccn2)cc1` [CBK266360] showed a viability at 28.5 h, 10 µM of 86.1%. In the case of `COc1cc2c(cc1-c1cn(CCN3CCCOC3=O)nn1)CCC2` [CBK306515], the viability at 28.5 h, 10 µM is reported as 107%. `Cc1nnsc1[S+]([O-])c1ccc(Br)cc1` (stereo not drawn) [CBK012927] gave a viability at 28.5 h, 10 µM of 96.1%. For `COc1ccc2c(ccn2S(=O)(=O)c2ccsc2C(=O)O)c1` [CBK002378], the viability at 28.5 h, 10 µM was 102%. In the case of `O=C(Nc1ccccn1)c1cc(O)c(OCc2ccccc2)cn1` [CBK287989], the viability at 28.5 h, 10 µM is reported as 89.5%. In the case of `CSc1cccc(NC(=S)N2CCC(N(C)C(C)C)CC2)c1` [CBK294463], the viability at 28.5 h, 10 µM is reported as 86.8%. Work on `Cc1nn(Cc2ccccc2)c(C)c1CNC(=O)c1nc(Cl)ccc1Cl` [CBK297928] yielded a viability at 28.5 h, 10 µM of 93.8%. Work on `Cc1nc2ccccc2nc1SCc1nc(N)nc(N2CCCCC2)n1` [CBK270218] yielded a viability at 28.5 h, 10 µM of 92.2%. For `Cc1ccccc1-c1cc(C(=O)Nc2ccc(S(N)(=O)=O)cc2)c2cc(Cl)ccc2n1` [CBK267741], the viability at 28.5 h, 10 µM was 90%. `CC(C)c1ccc(OCCc2cc(C3CCN(C(=O)CC4CCCC4)C3)n[nH]2)cc1` (stereo not drawn) [CBK286129] showed a viability at 28.5 h, 10 µM of 102%. Work on `CCOC(=O)c1ccc(NC(=O)c2ccccc2-c2nc(-c3ccccc3Cl)no2)cc1` [CBK268919] yielded a viability at 28.5 h, 10 µM of 111%. `COc1ccc(C(C)C)cc1-c1cnc(N)c(NC2CCCCC2)n1` [CBK063618] gave a viability at 28.5 h, 10 µM of 108%. Work on `CC(=O)Nc1ccc(S(=O)(=O)NCc2ccc3[nH]c4c(c3c2)CCCC4)cc1` [CBK267122] yielded a viability at 28.5 h, 10 µM of 87.1%. `CC(C)c1nc2c(n1C)CCN(Cc1cc(=O)n3ccccc3n1)C2` [CBK305061] gave a viability at 28.5 h, 10 µM of 92.6%. `N=c1n(CC(=O)O)c2ccccc2n1Cc1ccc(Cl)cc1` [CBK262897B] showed a viability at 28.5 h, 10 µM of 89.5%. With `COc1ccccc1OCC(=O)NCc1ccc(-c2csnn2)cc1` [CBK149303] the viability at 28.5 h, 10 µM was 99.5%. In the case of `O=C(C1CC1)N1CCCc2cc(C(O)CN3CCCCC3)ccc21` (stereo not drawn) [CBK282135], the viability at 28.5 h, 10 µM is reported as 99.5%. In the case of `Cn1cc(CCNC(=O)NC2CCN(Cc3ccccn3)CC2)cn1` [CBK305297], the viability at 28.5 h, 10 µM is reported as 102%. Compound `CO[C@]1(c2cccc(C)c2)CC[C@@H](N2CCCCC2)CC1` [CBK015909G] has a viability at 28.5 h, 10 µM of 83%. In the case of `Cc1cccnc1NC(=S)NCc1ccco1` [CBK268907], the viability at 28.5 h, 10 µM is reported as 103%. In the case of `Cn1c(=O)n(C)c2cc(CNC3(c4ccccc4)CC3)ccc21` [CBK282746], the viability at 28.5 h, 10 µM is reported as 87.9%. `CSCCN(C)c1nc2c(c(=O)[nH]1)Cc1ccccc1OC2` [CBK307523] gave a viability at 28.5 h, 10 µM of 100%. `Cc1ccc2oc(-c3cccc(NC(=O)c4ccccc4C(=O)O)c3)nc2c1` [CBK300481] showed a viability at 28.5 h, 10 µM of 109%. `O=C1NC(=O)C(c2ccccc2)(c2ccccn2)N1` (stereo not drawn) [CBK288455] showed a viability at 28.5 h, 10 µM of 97%. With `Cc1nnc2nc(-c3cccc(Cl)c3Cl)[nH]n12` [CBK263845] the viability at 28.5 h, 10 µM was 94.2%. `O=C(CNS(=O)(=O)c1cc(Br)c(Cl)s1)N1CCOCC1` [CBK034474] gave a viability at 28.5 h, 10 µM of 100%. For `CCCCCc1ccc(S(=O)(=O)N2CCN(C(=O)C3CCCO3)CC2)cc1` (stereo not drawn) [CBK044329], the viability at 28.5 h, 10 µM was 101%. Compound `Cc1nc(C)c(C(=O)N2CCC(c3cc4cnccc4[nH]3)CC2)s1` [CBK283432] has a viability at 28.5 h, 10 µM of 102%. For `Cc1cc(O)nc(-n2nc(C)cc2NC(=O)c2ccccc2)n1` [CBK287653], the viability at 28.5 h, 10 µM was 101%. With `O=C(O)c1cccc(Sc2cc(C(F)(F)F)ccn2)c1` [CBK093590] the viability at 28.5 h, 10 µM was 88.7%. Compound `CCCc1ccc(S(=O)(=O)Nc2ccccc2C(=O)O)cc1` [CBK042366] has a viability at 28.5 h, 10 µM of 72.4%. With `O=C(O)c1cccc(S(=O)(=O)Nc2nc3ccccc3s2)c1` [CBK161138] the viability at 28.5 h, 10 µM was 102%. With `NCCCNc1ccc(-c2ccco2)cn1` [CBK036911] the viability at 28.5 h, 10 µM was 100%. In the case of `O=S(=O)(Cc1ccc(Cl)cc1Cl)N1CCOCC1` [CBK058967], the viability at 28.5 h, 10 µM is reported as 78.1%. In the case of `COCc1cn([C@H]2CO[C@H]3[C@@H]2OC[C@@H]3NC(=O)Nc2ccc(OC)cc2)nn1` [CBK289495], the viability at 28.5 h, 10 µM is reported as 107%. `COc1ccc(Oc2nccc(N3CCCN(CCc4ccc5ccccc5c4)CC3)n2)cc1OC` [CBK084164] showed a viability at 28.5 h, 10 µM of 87%. In the case of `O=C(COc1ccccc1)Nc1nnc[nH]1` [CBK263898], the viability at 28.5 h, 10 µM is reported as 108%. Work on `CCC(=O)Nc1ccccc1C(=O)C(=O)O` [CBK219398] yielded a viability at 28.5 h, 10 µM of 120%. With `COCC(=O)N1CCc2cc(-c3cn4ccccc4n3)ccc21` [CBK285274] the viability at 28.5 h, 10 µM was 81.9%. In the case of `CN1CC(=O)N2CCOC(C2)c2cccc(n2)NC(=O)C/C=C/CC2(CCN(c3ncccn3)CC2)C1=O` (stereo not drawn) [CBK292188], the viability at 28.5 h, 10 µM is reported as 95.2%. `Cc1ccc(S(=O)(=O)N2CCC(C(=O)NC(c3ccccc3C)c3ncccc3C)CC2)cc1` (stereo not drawn) [CBK060249] gave a viability at 28.5 h, 10 µM of 94.3%. In the case of `O=C(CCn1cccn1)NC(Cc1ccsc1)c1cccnc1` (stereo not drawn) [CBK285393], the viability at 28.5 h, 10 µM is reported as 101%. In the case of `O=C(NCc1cccc(C(F)(F)F)c1)N1CCCCC1CO` (stereo not drawn) [CBK156165], the viability at 28.5 h, 10 µM is reported as 90.7%. `COc1ccc(-c2ccc(C#N)c(SCc3ccncc3)n2)cc1` [CBK269883] showed a viability at 28.5 h, 10 µM of 102%. `CCC(CO)Nc1nc(-c2ccc(O)cc2)cn2ccnc12` (stereo not drawn) [CBK037471] gave a viability at 28.5 h, 10 µM of 106%. Work on `Nc1cccc(-c2cncc(N(CCO)CCO)n2)c1` [CBK065808] yielded a viability at 28.5 h, 10 µM of 95.5%. For `COC(=O)[C@@H](C)NC(=O)[C@@H]1CN(C(=O)c2cccc(F)c2)CCN1S(C)(=O)=O` [CBK289625], the viability at 28.5 h, 10 µM was 96.8%. In the case of `Nc1ncn([C@H]2C[C@@H](O)[C@@H](CO)O2)c(=O)n1` [CBK201329], the viability at 28.5 h, 10 µM is reported as 92.8%. Work on `Cc1nc2c(C(=O)NCC(F)(F)F)cnn2c(C)c1Cc1cccc(F)c1` [CBK162117] yielded a viability at 28.5 h, 10 µM of 112%. For `O=C(O)CCCN1C(=O)/C(=C/c2c[nH]c3ccccc23)SC1=S` [CBK262580], the viability at 28.5 h, 10 µM was 119%. In the case of `CC(=O)Nc1cccc(NC(=O)N(CCC#N)C2CCCCC2)c1` [CBK156367], the viability at 28.5 h, 10 µM is reported as 91.9%. Compound `Cc1ccc(C)c2nc3c(cc12)CN(C1CC1)C(=O)CO3` [CBK282858] has a viability at 28.5 h, 10 µM of 94.8%. Compound `CC(=O)Nc1ccc(-c2ccc(COC3CCN(C(=O)Cc4ccc(Cl)cc4)CC3)cc2)cc1` [CBK149218] has a viability at 28.5 h, 10 µM of 94.6%. For `COc1cc(-n2cnc3cc(-c4ccc(Cl)cc4)sc3c2=O)ccc1OCCN1CCCC1` [CBK089844C], the viability at 28.5 h, 10 µM was 40.7%. Compound `COc1ccc(CN2CC=CC2C(=O)O)cc1Cn1cncn1` (stereo not drawn) [CBK307524] has a viability at 28.5 h, 10 µM of 76.2%. Work on `COc1cc(NC(=O)c2ccccc2)c(C(=O)O)cc1OC` [CBK227754] yielded a viability at 28.5 h, 10 µM of 89.9%. In the case of `C=CCNC(=O)C[C@@H]1CCN(C(=O)c2cccnc2)C[C@@H]1CC` [CBK289142], the viability at 28.5 h, 10 µM is reported as 92.3%. In the case of `Cc1cc(O)ccc1C(CC(=O)O)c1ccccc1` (stereo not drawn) [CBK013350], the viability at 28.5 h, 10 µM is reported as 100%. `OCC(CNc1ncnc2nc[nH]c12)Cc1ccccn1` (stereo not drawn) [CBK304412] gave a viability at 28.5 h, 10 µM of 83.4%. Work on `CCCc1n[nH]c(=S)n1CC(=O)NCc1ccc(N2CC(C)OC(C)C2)nc1` (stereo not drawn) [CBK297741] yielded a viability at 28.5 h, 10 µM of 90.4%. `CSCCN1CCC(Oc2nccnc2OCc2cc(C)on2)CC1` [CBK082966T] gave a viability at 28.5 h, 10 µM of 89.7%. `CCCCNc1cc(N2CCOC(c3cnn(CC)c3)C2)nc(N)n1` (stereo not drawn) [CBK305423] showed a viability at 28.5 h, 10 µM of 93.8%. Compound `CN(C)S(=O)(=O)c1ccc(Cl)c(C(=O)Nc2cccc([N+](=O)[O-])c2)c1` [CBK265721] has a viability at 28.5 h, 10 µM of 103%. Compound `CC(C)CCOc1nccnc1-c1ccc2c(c1)OCO2` [CBK106711] has a viability at 28.5 h, 10 µM of 104%. `COCCC(=O)N1CCC(F)CC1` [CBK200399] gave a viability at 28.5 h, 10 µM of 99.1%. Work on `COCCNc1nc(-c2cccc(C(N)=O)c2)cnc1N` [CBK063901] yielded a viability at 28.5 h, 10 µM of 115%.
